Experiments:
Assay type in all cases: biochemical
p110α/p85α (PI3Kα) = target: T1, p110α/p85α (PI3Kα) (Homo sapiens, UniProt P42336); assay: HTRF assay, p110α/p85α; conditions: read-out: PI3Kα-HTRF-IC50 nM Inhibition Designation
T1 construct: purchased BPS Bioscience or Millipore 40620 (BPS Bioscience) or 14-602 (Millipore)
Description: HTRF Assay Protocol for Potency Assessment Against the Active Form of p110α/p85α:
The mechanics of the assay platform are best described by the vendor (Millipore, Billerica, Mass.) on their website at the following URL: http://www.millipore.com/coa/tech1/74jt4z.
Briefly, Stop solution (Stop A, #33-007 and Stop B, #33-009; 3:1 ratio) and Detection Mix (DMC, #33-015 with DMA, #33-011 and DMB, #33-013; 18:1:1 ratio) were prepared as recommended by the manufacturer ˜2 hrs prior to use. […] Lipid kinase reactions were started with the addition of 5 μL of ATP solution, mixed for 15 sec on a rotary plate shaker and incubated for 15-30 minutes at 25° C. Next, reactions were stopped with a 5 μL addition of Stop solution followed by a 5 μL volume of Detection Mix. […] At the conclusion of each assay, the HTRF ratio from fluorescence emission values for each well was calculated and % Inhibition determined from averaged controls wells. % Inhibition values for each compound re then plotted against inhibitor concentration to estimate IC50 from log [Inhibitor] vs Response, Variable Slope model in GraphPad Prism from GraphPad Software (San Diego, Calif.).

p120γ (PI3Kγ) = target: T2, p120γ (PI3Kγ) (Homo sapiens, UniProt P48736); assay: HTRF assay, p120γ; conditions: PI3Kγ; read-out: PI3Kγ HTRF IC50 Inhibition Designation
T2 construct: purchased BPS Bioscience 40625
Description: The protocol below describes an end-point, competition-binding HTRF assay used to measure inherent potency of test compounds against active p110α/p85α, p110β/p85α, p120γ enzymes. The mechanics of the assay platform are best described by the vendor (Millipore, Billerica, Mass.) on their website at the following URL: http://www.millipore.com/coa/tech1/74jt4z.
Briefly, Stop solution (Stop A, #33-007 and Stop B, #33-009; 3:1 ratio) and Detection Mix (DMC, #33-015 with DMA, #33-011 and DMB, #33-013; 18:1:1 ratio) were prepared as recommended by the manufacturer ˜2 hrs prior to use. Additionally, 1× reaction buffer (4× buffer stock #33-003), a 1.4× stock of enzyme from BPS Bioscience (San Diego, Ca) or Millipore (Billerica, Mass.) with di-C8-PIP2 lipid substrate (#33-005), and a 4×ATP solution (#A7699) Sigma/Aldrich (St. Louis, Mo.) were prepared in 1×reaction buffer. 15 μL of enzyme and lipid substrate mix were pre-incubated in a Corning (#3573) 384-well, black, non-treated microtiter plate (Corning, N.Y.) for 30 min at 25° C. with a 0.5 μL volume of 50% DMSO and serially diluted compounds prepared in 50%-75% DMSO. Lipid kinase reactions were started with the addition of 5 μL of ATP solution, mixed for 15 sec on a rotary plate shaker and incubated for 15-30 minutes at 25° C. Next, reactions were stopped with a 5 μL addition of Stop solution followed by a 5 μL volume of Detection Mix. Stopped reactions were equilibrated for 1 and 18 hrs at room temperature and then read in a Synergy4 plate reader from BioTek (Winooski, Vt.) at λex330-80/λem620-35 and λem665-7.5. At the conclusion of each assay, the HTRF ratio from fluorescence emission values for each well was calculated and % Inhibition determined from averaged controls wells. % Inhibition values for each compound re then plotted against inhibitor concentration to estimate IC50 from log [Inhibitor] vs Response, Variable Slope model in GraphPad Prism from GraphPad Software (San Diego, Calif.).
Reagents Used in Optimized Protocol: • [p120γ]=1-4 nM, [ATP]=50 μM, [di-C8-PIP2]=10 μM • (40625; BPS Bioscience)

[1] = target: T3, HCV NS3/4A 1b protease enzyme (wild type) (Hepatitis C virus genotype 1b, UniProt P26663); assay: HCV protease FRET assay (IC50_APP), wild type NS3/4A 1b
T3 construct: 10× stocks of NS3/4A protease enzyme from Bioenza (Mountain View, Calif.); purchased Bioenza
Description: HCV Protease FRET Assay for WT and Mutated NS3/4A 1b Enzymes (IC50_APP).
The following protocol was used to generate “apparent” IC50 (IC50_APP) values as depicted in Table 6, below. Without wishing to be bound by any particular theory, it is believed that IC50_APP, contrasted with IC50 values, may provide a more useful indication of time-dependent inhibition, and are thus more representative of binding affinity. […] 5 μL of each enzyme were added to Corning (#3575) 384-well, black, microtiter plates (Corning, N.Y.) after spotting a 0.5 μL volume of 50% DMSO and serially diluted compounds prepared in 50% DMSO. Protease reactions were immediately started after enzyme addition with the addition of 45 μL of the FRET substrate and monitored for 60-90 minutes at λex485/λem520 in a Synergy plate reader from BioTek (Winooski, Vt.). At the conclusion of each assay, progress curves from each well were examined for linear reaction kinetics and fit statistics (R^2, 95% confidence intervals, absolute sum of squares). Initial velocity (0 minutes to 15+ minutes) from each reaction was determined from the slope of a plot of relative fluorescence units vs time (minutes) and then plotted against inhibitor concentration as a percent of the no inhibitor and no enzyme controls to estimate apparent IC50 from log [Inhibitor] vs Response. (Variable Slope model in GraphPad Prism from GraphPad Software (San Diego, Calif.).)

T1 sequence (P42336 whole entry): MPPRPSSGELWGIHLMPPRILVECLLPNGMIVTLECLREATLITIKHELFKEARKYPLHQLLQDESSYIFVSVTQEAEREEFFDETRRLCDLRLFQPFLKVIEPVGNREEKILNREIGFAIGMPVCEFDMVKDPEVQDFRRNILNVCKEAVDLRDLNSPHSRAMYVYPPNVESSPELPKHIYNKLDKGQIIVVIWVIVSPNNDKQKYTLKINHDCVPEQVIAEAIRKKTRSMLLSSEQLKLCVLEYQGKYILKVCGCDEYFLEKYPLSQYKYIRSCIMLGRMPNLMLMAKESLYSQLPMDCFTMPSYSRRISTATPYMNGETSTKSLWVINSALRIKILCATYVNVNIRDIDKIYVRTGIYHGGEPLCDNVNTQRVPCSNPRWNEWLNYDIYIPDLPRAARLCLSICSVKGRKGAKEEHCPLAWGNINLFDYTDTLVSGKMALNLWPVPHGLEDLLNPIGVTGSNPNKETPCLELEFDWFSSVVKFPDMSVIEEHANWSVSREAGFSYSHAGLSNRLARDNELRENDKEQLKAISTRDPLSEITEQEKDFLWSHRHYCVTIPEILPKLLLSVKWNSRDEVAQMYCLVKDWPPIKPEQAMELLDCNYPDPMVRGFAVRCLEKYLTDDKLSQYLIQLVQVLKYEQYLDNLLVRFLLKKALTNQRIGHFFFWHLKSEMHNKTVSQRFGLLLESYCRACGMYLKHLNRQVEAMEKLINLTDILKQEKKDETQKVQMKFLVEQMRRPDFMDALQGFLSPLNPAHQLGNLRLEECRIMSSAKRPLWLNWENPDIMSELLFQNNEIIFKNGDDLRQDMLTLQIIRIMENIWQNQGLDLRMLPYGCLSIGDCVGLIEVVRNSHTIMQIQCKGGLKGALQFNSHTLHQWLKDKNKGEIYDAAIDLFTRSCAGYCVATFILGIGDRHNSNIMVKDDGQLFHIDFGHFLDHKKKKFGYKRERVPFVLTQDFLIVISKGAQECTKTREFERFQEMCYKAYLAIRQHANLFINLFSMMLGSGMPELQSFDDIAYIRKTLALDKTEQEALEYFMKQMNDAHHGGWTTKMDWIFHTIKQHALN
T1 sequence (P27986 whole entry partner): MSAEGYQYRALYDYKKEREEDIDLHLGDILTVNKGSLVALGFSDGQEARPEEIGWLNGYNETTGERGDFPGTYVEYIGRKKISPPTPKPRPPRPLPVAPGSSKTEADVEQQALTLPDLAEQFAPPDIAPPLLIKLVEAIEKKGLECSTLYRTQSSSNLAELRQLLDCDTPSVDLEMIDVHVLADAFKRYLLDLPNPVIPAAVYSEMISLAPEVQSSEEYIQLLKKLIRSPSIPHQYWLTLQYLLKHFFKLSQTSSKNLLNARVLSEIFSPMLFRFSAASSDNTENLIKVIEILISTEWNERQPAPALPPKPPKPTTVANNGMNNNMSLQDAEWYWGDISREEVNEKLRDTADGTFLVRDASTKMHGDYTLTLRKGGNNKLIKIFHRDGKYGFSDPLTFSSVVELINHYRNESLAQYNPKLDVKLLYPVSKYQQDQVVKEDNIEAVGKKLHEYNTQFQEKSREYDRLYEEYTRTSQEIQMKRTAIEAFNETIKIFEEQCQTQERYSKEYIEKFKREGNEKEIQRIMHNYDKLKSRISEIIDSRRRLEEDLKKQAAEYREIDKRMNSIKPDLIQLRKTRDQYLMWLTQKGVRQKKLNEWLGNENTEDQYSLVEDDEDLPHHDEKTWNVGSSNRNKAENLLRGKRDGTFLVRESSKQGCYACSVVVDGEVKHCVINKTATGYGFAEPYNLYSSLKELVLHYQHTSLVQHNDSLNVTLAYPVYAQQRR
T3 sequence (P26663 1658-1711): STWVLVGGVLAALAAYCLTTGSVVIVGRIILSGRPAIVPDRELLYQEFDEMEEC
T3 sequence (P26663 1027-1657): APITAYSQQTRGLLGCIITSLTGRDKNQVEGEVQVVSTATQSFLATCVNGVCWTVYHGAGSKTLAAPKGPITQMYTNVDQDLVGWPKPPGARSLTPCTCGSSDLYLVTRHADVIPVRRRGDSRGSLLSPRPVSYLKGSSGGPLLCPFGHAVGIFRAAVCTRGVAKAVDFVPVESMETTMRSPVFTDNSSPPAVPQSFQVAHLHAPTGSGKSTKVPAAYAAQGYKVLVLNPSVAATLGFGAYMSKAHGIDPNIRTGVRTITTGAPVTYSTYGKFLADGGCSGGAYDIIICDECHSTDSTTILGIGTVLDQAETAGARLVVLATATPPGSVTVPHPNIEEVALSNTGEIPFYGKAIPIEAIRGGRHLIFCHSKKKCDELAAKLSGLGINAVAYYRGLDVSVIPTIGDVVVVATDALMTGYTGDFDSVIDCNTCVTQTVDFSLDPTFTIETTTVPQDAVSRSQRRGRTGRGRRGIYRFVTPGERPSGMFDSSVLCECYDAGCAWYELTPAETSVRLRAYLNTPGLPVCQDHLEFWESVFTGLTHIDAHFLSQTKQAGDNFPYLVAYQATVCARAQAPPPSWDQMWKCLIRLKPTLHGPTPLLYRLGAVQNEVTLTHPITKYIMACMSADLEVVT
T2 sequence (P48736 whole entry): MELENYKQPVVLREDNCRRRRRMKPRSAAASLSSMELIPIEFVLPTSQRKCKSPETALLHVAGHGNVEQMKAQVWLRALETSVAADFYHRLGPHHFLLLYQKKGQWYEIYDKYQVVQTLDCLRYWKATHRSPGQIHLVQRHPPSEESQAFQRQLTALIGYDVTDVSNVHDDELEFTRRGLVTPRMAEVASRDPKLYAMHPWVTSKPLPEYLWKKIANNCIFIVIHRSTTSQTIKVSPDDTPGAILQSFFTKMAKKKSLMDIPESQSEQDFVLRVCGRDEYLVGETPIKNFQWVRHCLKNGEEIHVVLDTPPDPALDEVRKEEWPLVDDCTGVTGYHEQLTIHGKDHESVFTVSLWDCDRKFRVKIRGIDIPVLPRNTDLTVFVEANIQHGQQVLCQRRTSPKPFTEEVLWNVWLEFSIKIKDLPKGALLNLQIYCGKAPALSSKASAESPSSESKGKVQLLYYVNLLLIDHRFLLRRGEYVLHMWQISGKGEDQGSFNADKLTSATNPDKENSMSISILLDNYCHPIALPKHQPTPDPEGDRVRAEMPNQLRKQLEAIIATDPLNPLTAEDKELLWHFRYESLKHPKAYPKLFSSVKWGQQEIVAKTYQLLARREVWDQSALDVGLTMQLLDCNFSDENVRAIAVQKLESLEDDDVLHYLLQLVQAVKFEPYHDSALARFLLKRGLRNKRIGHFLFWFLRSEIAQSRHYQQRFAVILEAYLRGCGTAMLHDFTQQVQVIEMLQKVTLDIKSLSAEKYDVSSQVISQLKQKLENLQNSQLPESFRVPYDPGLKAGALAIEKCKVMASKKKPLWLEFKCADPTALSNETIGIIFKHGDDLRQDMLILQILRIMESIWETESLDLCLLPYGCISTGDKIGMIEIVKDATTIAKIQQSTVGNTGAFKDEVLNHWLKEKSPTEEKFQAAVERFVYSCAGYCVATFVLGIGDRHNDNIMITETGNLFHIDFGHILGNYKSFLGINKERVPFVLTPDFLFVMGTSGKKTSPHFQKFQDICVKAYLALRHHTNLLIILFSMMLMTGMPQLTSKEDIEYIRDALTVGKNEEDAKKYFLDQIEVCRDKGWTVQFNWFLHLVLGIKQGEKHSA

For `CC1(C)Cc2nc(N3CCOc4ccc(NC(=O)[C@@H]5CCC(=O)O5)cc43)sc2C(=O)N1` [XXIII-1], the IC50 (p110α/p85α (PI3Kα)) was 100 to 1000 nM and the IC50 (p120γ (PI3Kγ)) was 100 to 1000 nM.
`C[C@H]1OC(=O)[C@H]1NC(=O)N1CCN(Cc2cc3nc(-c4cccc5[nH]ncc45)nc(N4CCOCC4)c3s2)CC1` [XXII-13] gave an IC50 (p110α/p85α (PI3Kα)) of 100 to 1000 nM and an IC50 (p120γ (PI3Kγ)) of 100 to 1000 nM.
Work on `O=C1CC[C@@H](C(=O)N2CCN(c3ccnc4ccc(/C=C5\SC(Nc6c(Cl)cccc6Cl)=NC5=O)cc34)CC2)O1` [XXIV-2] yielded an IC50 (p110α/p85α (PI3Kα)) of 100 to 1000 nM and an IC50 (p120γ (PI3Kγ)) of 100 to 1000 nM.
Compound `C=C[C@@H]1C[C@]1(NC(=O)[C@@H]1CC(OC(=O)N2Cc3cccc(F)c3C2)CN1C(=O)[C@H](CCNC(=O)[C@@H]1CCC(=O)O1)NC(=O)OC(C)(C)C)C(=O)NS(=O)(=O)C1CC1` (stereo partly drawn) [XVI-11, (5S)-1-((S)-2-(tert-butoxycarbonylamino)-4-((S)-5-oxotetrahydrofuran-2-carboxamido)butanoyl)-5-((1R,2S)-1-(cyclopropylsulfonylcarbamoyl)-2-vinylcyclopropylcarbamoyl)pyrrolidin-3-yl 4-fluoroisoindoline-2-carboxylate] has an IC50 [1] of 100 to 1000 nM.
`C=CC(=O)Nc1cccc(-c2nc(N3CCOCC3)c3sccc3n2)c1` [XXII-21] was tested, and the IC50 (p110α/p85α (PI3Kα)) was 1000 to 10000 nM and the IC50 (p120γ (PI3Kγ)) was 1000 to 10000 nM.
`C=CC(=O)n1cc(-c2ccc3c(c2)N(c2nc4c(s2)C(=O)NC(C)(C)C4)CCO3)cn1` [XXIII-5, 2-(6-(1-acryloyl-1H-pyrazol-4-yl)-2H-benzo[b][1,4]oxazin-4(3H)-yl)-6,6-dimethyl-6,7-dihydrothiazolo[5,4-c]pyridin-4(5H)-one] was tested, and the IC50 (p110α/p85α (PI3Kα)) was 100 to 1000 nM.
Work on `CC1(C)Cc2nc(N3CCOc4ccc(C(=O)N5C[C@H]6C[C@@H]5C(=O)O6)cc43)sc2C(=O)N1` [XXIII-3] yielded an IC50 (p110α/p85α (PI3Kα)) of 100 to 1000 nM and an IC50 (p120γ (PI3Kγ)) of 100 to 1000 nM.
For `C=C[C@@H]1C[C@]1(NC(=O)[C@@H]1CC(OC(=O)N2Cc3cccc(F)c3C2)CN1C(=O)[C@H](CNC(=O)[C@@H]1CCC(=O)O1)NC(=O)OC(C)(C)C)C(=O)NS(=O)(=O)C1CC1` (stereo partly drawn) [XVI-21, (5S)-1-((S)-2-(tert-butoxycarbonylamino)-3-((S)-5-oxotetrahydrofuran-2-carboxamido)propanoyl)-5-((1R,2S)-1-(cyclopropylsulfonylcarbamoyl)-2-vinylcyclopropylcarbamoyl)pyrrolidin-3-yl 4-fluoroisoindoline-2-carboxylate], the IC50 [1] was 1 to 10 nM.
Compound `C=C[C@@H]1C[C@]1(NC(=O)[C@@H]1CC(OC(=O)N2Cc3cccc(F)c3C2)CN1C(=O)[C@@H]1CCC(=O)O1)C(=O)NS(=O)(=O)C1CC1` (stereo partly drawn) [XVI-23, (5S)-5-((1R,2S)-1-(cyclopropylsulfonylcarbamoyl)-2-vinylcyclopropylcarbamoyl)-1-((S)-5-oxotetrahydrofuran-2-carbonyl)pyrrolidin-3-yl 4-fluoroisoindoline-2-carboxylate] has an IC50 [1] of 100 to 1000 nM.
Compound `O=C(N1CCN(Cc2cc3nc(-c4ccccc4)nc(N4CCOCC4)c3s2)CC1)n1ccnc1` [XXII-18] has an IC50 (p110α/p85α (PI3Kα)) of 1000 to 10000 nM.
Compound `C=CC(=O)N1CCN(Cc2cc3nc(-c4ccccc4)nc(N4CCOCC4)c3s2)CC1` [XXII-19] has an IC50 (p110α/p85α (PI3Kα)) of 1000 to 10000 nM.
In the case of `O=C(N1CCN(Cc2cc3nc(-c4cccc5[nH]ncc45)nc(N4CCOCC4)c3s2)CC1)n1ccnc1` [XXII-16, (4-((2-(1H-indazol-4-yl)-4-morpholinothieno[3,2-d]pyrimidin-6-yl)methyl)piperazin-1-yl)(1H-imidazol-1-yl)methanone], the IC50 (p110α/p85α (PI3Kα)) is reported as 10 to 100 nM.
Work on `C=C[C@@H]1C[C@]1(NC(=O)[C@@H]1CC(OC(=O)N2Cc3cccc(F)c3C2)CN1C(=O)[C@H](CCNC(=O)[C@H]1CCC(=O)O1)NC(=O)OC(C)(C)C)C(=O)NS(=O)(=O)C1CC1` (stereo partly drawn) [XVI-10, (5S)-1-((S)-2-(tert-butoxycarbonylamino)-4-((R)-5-oxotetrahydrofuran-2-carboxamido)butanoyl)-5-((1R,2S)-1-(cyclopropylsulfonylcarbamoyl)-2-vinylcyclopropylcarbamoyl)pyrrolidin-3-yl 4-fluoroisoindoline-2-carboxylate] yielded an IC50 [1] of 100 to 1000 nM.
In the case of `C=C[C@@H]1C[C@]1(NC(=O)[C@@H]1CC(OC(=O)N2Cc3cccc(F)c3C2)CN1C(=O)CNC(=O)[C@@H]1CCC(=O)O1)C(=O)NS(=O)(=O)C1CC1` (stereo partly drawn) [XVI-13, (5S)-5-((1R,2S)-1-(cyclopropylsulfonylcarbamoyl)-2-vinylcyclopropylcarbamoyl)-1-(2-((S)-5-oxotetrahydrofuran-2-carboxamido)acetyl)pyrrolidin-3-yl 4-fluoroisoindoline-2-carboxylate], the IC50 [1] is reported as 100 to 1000 nM.
`C=C[C@@H]1C[C@]1(NC(=O)[C@@H]1CC(OC(=O)N2Cc3cccc(F)c3C2)CN1C(=O)[C@H](CNC(=O)[C@H]1CCC(=O)O1)NC(=O)OC(C)(C)C)C(=O)NS(=O)(=O)C1CC1` (stereo partly drawn) [XVI-20, (5S)-1-((S)-2-(tert-butoxycarbonylamino)-3-((R)-5-oxotetrahydrofuran-2-carboxamido)propanoyl)-5-((1R,2S)-1-(cyclopropylsulfonylcarbamoyl)-2-vinylcyclopropylcarbamoyl)pyrrolidin-3-yl 4-fluoroisoindoline-2-carboxylate] was tested, and the IC50 [1] was 1 to 10 nM.
With `C=C[C@@H]1C[C@]1(NC(=O)[C@@H]1CC(OC(=O)N2Cc3cccc(F)c3C2)CN1C(=O)[C@H](CN(C)C(=O)[C@H]1CCC(=O)O1)NC(=O)OC(C)(C)C)C(=O)NS(=O)(=O)C1CC1` (stereo partly drawn) [XVI-18, (5S)-1-((S)-2-(tert-butoxycarbonylamino)-3-((R)-N-methyl-5-oxotetrahydrofuran-2-carboxamido)propanoyl)-5-((1R,2S)-1-(cyclopropylsulfonylcarbamoyl)-2-vinylcyclopropylcarbamoyl)pyrrolidin-3-yl 4-fluoroisoindoline-2-carboxylate] the IC50 [1] was 1 to 10 nM.
`C=C[C@@H]1C[C@]1(NC(=O)[C@@H]1CC(OC(=O)N2Cc3cccc(F)c3C2)CN1C(=O)CNC(=O)[C@H]1CCC(=O)O1)C(=O)NS(=O)(=O)C1CC1` (stereo partly drawn) [XVI-12, (5S)-5-((1R,2S)-1-(cyclopropylsulfonylcarbamoyl)-2-vinylcyclopropylcarbamoyl)-1-(2-((R)-5-oxotetrahydrofuran-2-carboxamido)acetyl)pyrrolidin-3-yl 4-fluoroisoindoline-2-carboxylate] gave an IC50 [1] of 100 to 1000 nM.
In the case of `C=C[C@@H]1C[C@]1(NC(=O)[C@@H]1CC(OC(=O)N2Cc3cccc(F)c3C2)CN1C(=O)[C@H]1CCC(=O)O1)C(=O)NS(=O)(=O)C1CC1` (stereo partly drawn) [XVI-22, (5S)-5-((1R,2S)-1-(cyclopropylsulfonylcarbamoyl)-2-vinylcyclopropylcarbamoyl)-1-((R)-5-oxotetrahydrofuran-2-carbonyl)pyrrolidin-3-yl 4-fluoroisoindoline-2-carboxylate], the IC50 [1] is reported as > 1000 nM.
`CC(=O)CC(=O)N1CCN(Cc2cc3nc(-c4cccc5[nH]ncc45)nc(N4CCOCC4)c3s2)CC1` [XXII-14] was tested, and the IC50 (p110α/p85α (PI3Kα)) was 10 to 100 nM.

— patent US11542492B2 (Celgene CAR LLC, priority 2009, dated 2023)
